Test results as given in patent US6818445B2 (Synaptic Pharmaceutical Corporation, priority 1994, dated 2004).

Key:
human α1b receptor = target: T1, human α1b receptor (Homo sapiens, UniProt P35368); experiment: Binding to cloned human α1b adrenergic receptor
T1 sequence (P35368 1-520): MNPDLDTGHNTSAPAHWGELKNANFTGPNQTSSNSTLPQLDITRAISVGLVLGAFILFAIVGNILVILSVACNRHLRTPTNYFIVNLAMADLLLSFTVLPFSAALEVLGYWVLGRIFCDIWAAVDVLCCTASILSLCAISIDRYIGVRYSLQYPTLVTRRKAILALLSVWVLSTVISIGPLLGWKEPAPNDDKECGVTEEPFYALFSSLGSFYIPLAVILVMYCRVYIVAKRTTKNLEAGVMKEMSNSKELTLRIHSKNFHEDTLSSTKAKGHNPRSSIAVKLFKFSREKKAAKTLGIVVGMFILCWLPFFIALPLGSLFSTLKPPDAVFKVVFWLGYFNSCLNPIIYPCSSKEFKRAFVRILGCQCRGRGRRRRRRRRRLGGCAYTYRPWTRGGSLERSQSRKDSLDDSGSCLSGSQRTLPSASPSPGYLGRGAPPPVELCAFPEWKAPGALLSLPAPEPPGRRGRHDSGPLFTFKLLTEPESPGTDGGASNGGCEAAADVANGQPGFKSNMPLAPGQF

human α2B receptor = target: T2, human α2B receptor (Homo sapiens, UniProt P18089); experiment: Binding to cloned human α2B adrenergic receptor, [3H]rauwolscine
T2 sequence (P18089 1-450): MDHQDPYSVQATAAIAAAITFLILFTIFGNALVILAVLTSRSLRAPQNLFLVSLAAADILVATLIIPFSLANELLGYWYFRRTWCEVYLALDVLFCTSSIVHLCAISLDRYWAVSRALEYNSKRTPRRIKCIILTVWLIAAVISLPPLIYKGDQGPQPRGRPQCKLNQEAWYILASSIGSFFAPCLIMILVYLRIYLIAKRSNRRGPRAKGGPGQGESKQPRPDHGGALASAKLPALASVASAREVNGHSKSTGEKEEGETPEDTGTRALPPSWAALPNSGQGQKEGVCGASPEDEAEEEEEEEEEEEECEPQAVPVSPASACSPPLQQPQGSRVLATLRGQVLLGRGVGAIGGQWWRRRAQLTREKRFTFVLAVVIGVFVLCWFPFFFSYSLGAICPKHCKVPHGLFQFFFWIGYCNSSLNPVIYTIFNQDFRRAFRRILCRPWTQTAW

human α2A receptor = target: T3, human α2A receptor (Homo sapiens, UniProt P08913); experiment: Binding to cloned human α2A adrenergic receptor, [3H]rauwolscine
T3 sequence (P08913 1-465): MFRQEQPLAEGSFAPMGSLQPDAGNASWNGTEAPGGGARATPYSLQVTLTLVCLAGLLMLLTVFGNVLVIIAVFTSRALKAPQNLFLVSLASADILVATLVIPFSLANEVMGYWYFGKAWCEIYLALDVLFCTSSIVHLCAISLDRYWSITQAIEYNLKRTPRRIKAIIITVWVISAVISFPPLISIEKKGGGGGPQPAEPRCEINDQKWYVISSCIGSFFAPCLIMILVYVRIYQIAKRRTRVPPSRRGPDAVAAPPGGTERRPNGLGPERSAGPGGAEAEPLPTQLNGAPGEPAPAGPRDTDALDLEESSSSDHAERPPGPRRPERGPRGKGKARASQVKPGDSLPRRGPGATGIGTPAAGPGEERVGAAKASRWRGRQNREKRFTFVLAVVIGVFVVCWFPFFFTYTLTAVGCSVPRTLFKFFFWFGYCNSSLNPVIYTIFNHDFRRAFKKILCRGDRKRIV

human Y1 receptor = target: T4, human Y1 receptor (Homo sapiens, UniProt P25929); conditions: read-out: Binding Affinity (Ki (nM) vs. ^125I-PYY) Human Receptor Y1; Table 14
T4 sequence (P25929 1-384): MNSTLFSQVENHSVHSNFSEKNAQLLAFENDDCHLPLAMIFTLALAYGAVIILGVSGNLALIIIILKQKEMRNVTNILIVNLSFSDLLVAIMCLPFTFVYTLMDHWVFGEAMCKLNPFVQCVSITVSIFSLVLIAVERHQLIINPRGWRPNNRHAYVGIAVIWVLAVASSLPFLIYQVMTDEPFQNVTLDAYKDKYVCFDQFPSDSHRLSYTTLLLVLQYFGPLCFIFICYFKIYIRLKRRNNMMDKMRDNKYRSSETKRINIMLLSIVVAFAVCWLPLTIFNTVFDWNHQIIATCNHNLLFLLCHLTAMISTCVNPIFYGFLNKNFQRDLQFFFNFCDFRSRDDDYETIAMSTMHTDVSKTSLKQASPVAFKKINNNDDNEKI

human Y4 receptor = human Y4 receptor (Homo sapiens, UniProt P50391); assay type: binding; conditions: read-out: Binding Affinity (Ki (nM) vs. ^125I-PYY) Human Receptor Y4; Table 14
human Y4 receptor, sequence (P50391 whole entry): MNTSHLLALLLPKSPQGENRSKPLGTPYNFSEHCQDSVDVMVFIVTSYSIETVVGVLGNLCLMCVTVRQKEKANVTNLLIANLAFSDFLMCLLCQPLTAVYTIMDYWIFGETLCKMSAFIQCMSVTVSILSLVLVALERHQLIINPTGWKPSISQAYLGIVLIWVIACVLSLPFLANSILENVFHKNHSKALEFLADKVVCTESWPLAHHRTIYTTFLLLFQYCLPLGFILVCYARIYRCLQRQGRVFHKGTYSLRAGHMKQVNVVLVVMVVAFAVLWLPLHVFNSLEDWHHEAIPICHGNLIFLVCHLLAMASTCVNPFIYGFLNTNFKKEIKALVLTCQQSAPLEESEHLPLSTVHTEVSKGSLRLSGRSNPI

human 5-HT7 receptor = human 5-HT7 receptor (Homo sapiens, UniProt P34969); experiment: Binding to human 5-HT7 receptor; conditions: cloned human receptor
human 5-HT7 receptor, sequence (P34969 1-445 isoform P34969-2): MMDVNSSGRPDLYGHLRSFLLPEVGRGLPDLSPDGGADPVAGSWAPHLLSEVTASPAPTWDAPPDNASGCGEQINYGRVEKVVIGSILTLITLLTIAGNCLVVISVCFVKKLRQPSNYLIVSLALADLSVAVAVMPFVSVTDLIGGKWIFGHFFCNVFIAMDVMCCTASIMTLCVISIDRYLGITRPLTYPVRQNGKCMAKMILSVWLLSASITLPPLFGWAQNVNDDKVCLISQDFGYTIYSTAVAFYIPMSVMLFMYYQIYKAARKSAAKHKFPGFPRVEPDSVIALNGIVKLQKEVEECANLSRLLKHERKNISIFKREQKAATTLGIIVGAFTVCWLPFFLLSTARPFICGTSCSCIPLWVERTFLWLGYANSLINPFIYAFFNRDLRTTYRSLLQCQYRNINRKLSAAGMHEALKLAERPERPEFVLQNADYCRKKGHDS

human α1d receptor = target: T5, human α1d receptor (Homo sapiens, UniProt P25100); experiment: Binding to cloned human α1d adrenergic receptor
T5 sequence (P25100 1-572): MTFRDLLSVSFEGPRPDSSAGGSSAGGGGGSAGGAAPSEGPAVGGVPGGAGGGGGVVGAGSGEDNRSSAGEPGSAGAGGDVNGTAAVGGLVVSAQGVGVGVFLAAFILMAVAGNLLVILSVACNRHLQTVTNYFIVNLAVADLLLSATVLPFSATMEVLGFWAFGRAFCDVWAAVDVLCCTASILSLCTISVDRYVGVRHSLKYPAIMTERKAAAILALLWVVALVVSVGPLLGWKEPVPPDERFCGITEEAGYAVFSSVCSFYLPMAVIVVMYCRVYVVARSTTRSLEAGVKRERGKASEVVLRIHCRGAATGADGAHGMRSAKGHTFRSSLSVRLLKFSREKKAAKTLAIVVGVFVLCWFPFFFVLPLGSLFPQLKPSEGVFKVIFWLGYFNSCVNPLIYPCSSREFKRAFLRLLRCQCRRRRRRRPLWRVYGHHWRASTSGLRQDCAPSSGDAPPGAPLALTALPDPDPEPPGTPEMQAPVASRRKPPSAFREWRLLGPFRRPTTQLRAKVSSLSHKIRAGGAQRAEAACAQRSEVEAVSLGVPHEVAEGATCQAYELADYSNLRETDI

human 5HT2 receptor = human 5HT2 receptor (Homo sapiens, UniProt P28223); experiment: Binding to human 5HT2 receptor, [3H]ketanserin; conditions: cloned human receptor
human 5HT2 receptor, sequence (P28223 whole entry): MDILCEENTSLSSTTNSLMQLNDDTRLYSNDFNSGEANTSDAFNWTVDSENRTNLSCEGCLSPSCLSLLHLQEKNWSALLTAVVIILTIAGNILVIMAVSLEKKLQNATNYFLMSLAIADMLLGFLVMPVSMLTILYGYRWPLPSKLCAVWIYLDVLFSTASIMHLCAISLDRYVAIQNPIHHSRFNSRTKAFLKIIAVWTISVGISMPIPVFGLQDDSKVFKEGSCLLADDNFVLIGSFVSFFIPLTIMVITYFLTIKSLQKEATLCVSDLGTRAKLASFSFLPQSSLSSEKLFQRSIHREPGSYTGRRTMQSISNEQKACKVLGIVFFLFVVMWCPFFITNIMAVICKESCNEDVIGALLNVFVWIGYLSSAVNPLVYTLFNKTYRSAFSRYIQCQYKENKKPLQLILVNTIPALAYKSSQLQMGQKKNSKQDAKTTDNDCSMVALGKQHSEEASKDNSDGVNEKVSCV

[1] = tested on: food intake of 24 h food-deprived rats; experiment: Food intake in food-deprived rats; assay type: in vivo, rat; conditions: 30 mg/kg i.p. after 24 h food deprivation, percentage of intake compared to control rats
Protocol: At the end of the equilibration period, food is removed from the animals for 24 hours starting at 8:00 a.m. At the end of the fasting period compound or vehicle may be administered to the animals orally or by injection intraperitoneally or intravenously. After 10-60 min. food is returned to the animals and their food intake is monitored at various time periods during the following 24 hour period. The food intake of animals treated with test compound may be calculated as a percentage of the food intake of control animals (i.e., animals treated with vehicle). Alternatively, food intake for each group of animals subjected to a particular experimental condition may be expressed as the mean±S.E.M.
Therefore, the Y5 antagonists of Table 14 were administered by intraperitoneal injection at a dose of 30 mg/kg to conscious rats following a 24 h food deprivation. […] Measurements were performed two hours after administration of the test compound.

Row | Structure (SMILES) | Receptor (pKi) α1b (human α1b receptor) | Receptor (pKi) α2b (human α2B receptor) | Receptor (pKi) α2a (human α2A receptor) | Ki (human Y1 receptor) [nM] | Ki (human Y4 receptor) [nM] | Receptor (pKi) 5HT7 (human 5-HT7 receptor) | Receptor (pKi) α1d (human α1d receptor) | Receptor (pKi) 5HT2 (human 5HT2 receptor) | Two-hour food intake of food-deprived rats, Mean (%) [1] [%]
1 | Cl.O=S(=O)(NC[C@H]1CC[C@H](CNCC2CCc3ccccc3C2)CC1)c1cccc2ccccc12 (stereo partly drawn) [Compound 19] | 7.35 | 6.58 | 6.74 | 3550 | 11700 | 6.42 | 6.90 | 6.55 | 36
2 | Cl.O=[N+]([O-])c1ccccc1S(=O)(=O)NC[C@H]1CC[C@H](CNCC2CCc3ccccc3C2)CC1 (stereo partly drawn) [Compound 20] | 7.22 | 6.96 | 7.31 | 16000 | 20400 | 6.37 | 7.01 | 5.93 | 35
3 | Cl.Cl.Nc1ccccc1S(=O)(=O)NCC1CCC(CNCC2CCc3ccccc3C2)CC1 (stereo not drawn) [Compound 22] | 6.98 | 6.43 | 7.05 | 17200 | 27500 | 6.39 | 6.80 | 5.99 | 55
